Measurements from patent US20260297042A1, “BIARYLAMIDE DERIVATIVES AND THEIR USE AS PKMYT1 INHIBITORS” (CANCER RESEARCH TECHNOLOGY LIMITED, priority 2023, published 2026).

Columns and labels:
[1] = tested on: KYSE-30 cells; experiment: Cancer cell line proliferation assay, nuclear count, KYSE-30 (normal CCNE1); format: cell-based; conditions: Homo sapiens, normal CCNE1 expression, banded, read-out: KYSE30 GI50
Description: (§1) h-TERT-RPE1 TP53−/− and CCNE1 high expressing clones (clone cell lines 7 and 15) were treated with test compounds dissolved in DMSO at serially diluted concentrations alongside a DMSO only control for around 6 population doublings time. Cells were then fixed with 4% Paraformaldehyde and the cell nuclei were stained with DAPI (Sigma D9542). Images covering each well were acquired by an Opera Phenix® High-Content Screening System (PerkinElmer). Image analysis was performed using Harmony® high-content analysis software (PerkinElmer). Data analysis was performed using Microsoft Excel® and GI50 estimates generated with GraphPad Prism v9. Percent nuclear count was compared to vehicle control wells and used to measure inhibition of proliferation.
(§2) Cancer cell lines with either normal (KYSE-30) or amplified CCNE1 expression (OVCAR3-ovarian cancer) were evaluated for their sensitivity to PKMYT1 inhibitors in a nuclear count assay as described above for h-TERT-RPE1 TP53−/− and a CCNE1 high expressing clones, taking into account the slower cell cycle division times of these lines.

[2] = tested on: OVCAR3 cells; experiment: Cancer cell line proliferation assay, nuclear count, OVCAR3 (CCNE1-amplified); format: cell-based; conditions: banded; for Selectivity ratio KYSE30 GI50 vs. OVCAR3 GI50: >N = at least in this band; for GI50: Homo sapiens, OVCAR-3, CCNE1-amplified ovarian cancer, nuclear count
Description: as §1, §2

[3] = biological target: T1, WEE1 (Homo sapiens, UniProt P30291); experiment: Selectivity versus WEE1 assay (ADP-Glo enzymatic assay); format: biochemical; conditions: banded; for IC50: ADP-Glo, 15 nM WEE1, 60 minutes at 26° C.; for PKMYT1 vs. WEE1 selectivity: fold difference in selectivity for PKMYT1 over WEE1, ">N" = at least in this band but could be higher
T1 construct: purchased Thermo Fisher PR7373A
Summary of the method: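 15 nM WEE1, 30 µM ATP, 50 mM HEPES pH 7.5, 10 mM MgCl2, 1 mM EGTA, 0.01% Brij-35, 1% DMSO; 60 min, 26° C; ADP-Glo luminescence; IC50 from curve fit, replicates within 3-fold, r2 >0.9.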

[4] = biological target: T2, Human PKMYT1 (Homo sapiens, UniProt Q99640); experiment: PKMYT1 biochemical ADP-Glo enzymatic assay; conditions: ADP-Glo; 15 nM PKMYT1 kinase domain, 500 µM ATP, 60 minutes at 26° C.; banded
T2 construct: Human PKMYT1 75-362 was cloned as a TEV cleavable 6xHis fusion; 6xHis (TEV cleavable) (cleaved yes); made in house; host or cells: bacterial cells
T2 sequence (Q99640 75-362): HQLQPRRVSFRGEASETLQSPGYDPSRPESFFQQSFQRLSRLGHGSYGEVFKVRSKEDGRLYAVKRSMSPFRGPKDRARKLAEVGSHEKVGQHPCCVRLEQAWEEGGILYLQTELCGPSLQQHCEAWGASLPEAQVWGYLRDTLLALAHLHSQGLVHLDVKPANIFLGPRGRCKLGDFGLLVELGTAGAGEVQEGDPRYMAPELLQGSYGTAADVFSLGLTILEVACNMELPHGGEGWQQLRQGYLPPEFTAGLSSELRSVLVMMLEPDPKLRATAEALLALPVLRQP
Summary of the method: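 PKMYT1 75-362 (His-cleaved, bacterial) 15 nM; ATP 500 µM; HEPES pH 7.5, MgCl2, EGTA, Brij-35, 1% DMSO; 60 min, 26 °C; ADP-Glo Max luminescence; 10-pt 3-fold titration → IC50; replicates within 3-fold, r2 >0.9.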

[5] = biological target: T3, Cellular PKMYT1 Biomarker CDK1 pT14 (Homo sapiens, UniProt Q99640); experiment: Inhibition of cellular PKMYT1 biomarker CDK1 pT14 in OVCAR 3 cells (immunoblot); format: cell-based; conditions: 20 hours incubation
T3 construct: read-out CDK1 phospho-T14 immunoblot
T3 sequence (Q99640 1-499): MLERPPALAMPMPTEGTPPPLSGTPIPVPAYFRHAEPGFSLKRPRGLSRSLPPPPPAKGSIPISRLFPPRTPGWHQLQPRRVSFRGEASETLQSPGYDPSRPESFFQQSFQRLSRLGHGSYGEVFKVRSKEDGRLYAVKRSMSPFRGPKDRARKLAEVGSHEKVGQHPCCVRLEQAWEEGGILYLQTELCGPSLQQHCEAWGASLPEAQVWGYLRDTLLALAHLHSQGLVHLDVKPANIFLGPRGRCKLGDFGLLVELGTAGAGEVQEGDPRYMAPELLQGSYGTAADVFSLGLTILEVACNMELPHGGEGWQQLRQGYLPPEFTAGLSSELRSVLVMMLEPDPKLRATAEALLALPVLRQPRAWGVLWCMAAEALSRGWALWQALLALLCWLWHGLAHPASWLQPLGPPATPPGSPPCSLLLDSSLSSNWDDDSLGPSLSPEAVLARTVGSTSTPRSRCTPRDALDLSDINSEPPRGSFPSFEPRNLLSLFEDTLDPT
Summary of the method: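 Confluent OVCAR 3 cells treated with a compound concentration range for 20 h at 37 °C. Lysates analysed by automated capillary immunoblot for CDK1 phospho-T14, with vinculin, fluorescence detection; IC50 by regression.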

[6] = tested on: h-TERT-RPE1 TP53−/− CCNE1 high expressing clone cell line 15 (CL15); experiment: Nuclear count cell proliferation assay, CCNE1 high expressing clone cell line 15 (CL15) of h-TERT-RPE1 TP53−/−; format: cell-based; conditions: banded; for Selectivity Ratio Wt vs. CL15: GI50 ratio RPE Wt vs. CL15, >N = at least in this band; for GI50: h-TERT-RPE1 TP53−/− CCNE1 high clone CL15, nuclear count, around 6 population doublings, read-out: RPE CL15 GI50
Description: as §1

[7] = tested on: h-TERT-RPE1 TP53−/− parental cells; experiment: Nuclear count cell proliferation assay, parental (wild type) h-TERT-RPE1 TP53−/− cells; format: cell-based; conditions: hTERT-RPE1, h-TERT-RPE1 TP53−/− parental (Wt), around 6 population doublings, banded, read-out: RPE Wt GI50
Description: as §1

[8] = tested on: h-TERT-RPE1 TP53−/− CCNE1 high expressing clone cell line 7 (CL7); experiment: Nuclear count cell proliferation assay, CCNE1 high expressing clone cell line 7 (CL7) of h-TERT-RPE1 TP53−/−; format: cell-based; conditions: banded; for Selectivity Ratio Wt vs. CL7: GI50 ratio RPE Wt vs. CL7, >N = at least in this band; for GI50: hTERT-RPE1, h-TERT-RPE1 TP53−/− CCNE1 high clone CL7, nuclear count, around 6 population doublings, read-out: RPE CL7 GI50
Description: as §1

[9] = tested on: KYSE-30 cells; experiment: Cancer cell line proliferation assay, ATP-based cell viability (Cell Titre Glow), KYSE-30 (normal CCNE1); conditions: Homo sapiens, KYSE-30 cells (normal CCNE1), concentration that achieves 50% cell growth proliferation inhibition, read-out: KYSE30 Gl50
Summary of the method: (§3)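 Sensitivity to PKMYT1 inhibitors was measured by ATP-based luminescence (CellTiter-Glo) as the proliferation endpoint. GI50, the concentration giving 50% growth inhibition, was estimated from curve fits.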

[10] = tested on: OVCAR 3 cells; experiment: Cancer cell line proliferation assay, ATP-based cell viability (Cell Titre Glow), OVCAR 3 (CCNE1-amplified); conditions: KYSE30 (normal CCNE1) GI50 vs. OVCAR 3 (CCNE1-amplified) GI50
Summary of the method: as §3

T1 sequence (P30291 whole entry): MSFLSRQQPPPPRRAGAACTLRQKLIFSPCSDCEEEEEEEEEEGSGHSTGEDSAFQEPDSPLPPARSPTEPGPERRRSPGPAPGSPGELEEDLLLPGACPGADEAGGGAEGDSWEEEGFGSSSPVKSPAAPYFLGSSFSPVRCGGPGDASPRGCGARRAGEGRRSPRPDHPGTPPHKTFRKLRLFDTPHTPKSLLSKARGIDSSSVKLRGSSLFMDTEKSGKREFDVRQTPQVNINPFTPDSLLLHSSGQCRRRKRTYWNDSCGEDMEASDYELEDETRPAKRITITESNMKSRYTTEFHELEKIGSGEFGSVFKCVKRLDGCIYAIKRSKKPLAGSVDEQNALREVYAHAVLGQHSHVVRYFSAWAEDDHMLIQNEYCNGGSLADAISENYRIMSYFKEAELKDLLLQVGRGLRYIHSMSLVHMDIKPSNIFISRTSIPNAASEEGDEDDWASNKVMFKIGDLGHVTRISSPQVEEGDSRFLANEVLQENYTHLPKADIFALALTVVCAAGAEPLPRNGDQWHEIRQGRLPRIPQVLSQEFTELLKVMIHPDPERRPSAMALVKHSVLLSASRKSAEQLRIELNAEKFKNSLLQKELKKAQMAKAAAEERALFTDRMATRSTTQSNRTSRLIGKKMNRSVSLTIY

GI50 [2] [µM]	IC50 [3] [µM]	PKMYT1 vs. WEE1 selectivity [3]	IC50 [4] [µM]	IC50 [5] [µM]	SMILES	GI50 [1] [µM]	Selectivity ratio KYSE30 GI50 vs. OVCAR3 GI50 [2]	Selectivity Ratio Wt vs. CL15 [6]	GI50 [6] [µM]	GI50 [7] [µM]	Selectivity Ratio Wt vs. CL7 [8]	GI50 [8] [µM]	GI50 [9] [µM]	Selectivity ratio KYSE30 Gl50 vs. OVCAR3 Gl50 [10]
0.5 to 3	> 11	>X (100-<1000 fold)	0.05 to 1		Cc1ccc(O)c(C)c1NC(=O)c1cnc(Nc2cc(C(F)(F)F)nn2C)s1 [BAA-046, N-(3-hydroxy-2,6-dimethyl-phenyl)-2-[[2-methyl-5-(trifluoromethyl)pyrazol-3-yl]amino]thiazole-5-carboxamide]	3 to 10	X (3-<10 fold)							
0.5 to 3	> 11	>X (100-<1000 fold)	0.05 to 1	0.1 to 1	Cc1ccc(O)c(C)c1NC(=O)c1cnc(Nc2cc(C(F)(F)F)n(C)n2)s1 [BAA-047]	3 to 10	X (3-<10 fold)							
	> 11	X (100-<1000 fold)	0.05 to 1		Cc1ccc(O)c(C)c1NC(=O)c1cnc(NC2CC2)s1 [BAA-061, 2-(cyclopropylamino)-N-(3-hydroxy-2,6-dimethyl-phenyl)thiazole-5-carboxamide]			X (3-<10 fold)	0.5 to 3	3 to 10				
	> 11	>Y (1000-5000 fold)	0.05 to 1		CCOC(=O)c1cn(C)nc1Nc1ncc(C(=O)Nc2c(C)ccc(O)c2C)s1 [BAA-129, ethyl 3-[[5-[(3-hydroxy-2,6-dimethyl-phenyl)carbamoyl]thiazol-2-yl]amino]-1-methyl-pyrazole-4-carboxylate]			X (3-<10 fold)	0.5 to 3	> 10				
3 to 10	> 11	Y (1000-5000 fold)	< 0.05		Cc1ccc(O)c(C)c1NC(=O)c1cnc(Nc2ccn(CC(=O)N3CCCC3)n2)s1 [BAA-148, N-(3-hydroxy-2,6-dimethyl-phenyl)-2-[[1-(2-oxo-2-pyrrolidin-1-yl-ethyl)pyrazol-3-yl]amino]thiazole-5-carboxamide]	> 10	X (3-<10 fold)	X (3-<10 fold)	0.5 to 3	0.5 to 3				
	1 to 11	X (100-<1000 fold)	< 0.05		Cc1ccc(O)c(C)c1NC(=O)c1cnc(Nc2ccn(CC(=O)NC3CCN(C(=O)OC(C)(C)C)CC3)n2)s1 [BAA-152]			X (3-<10 fold)	0.5 to 3	> 10				
3 to 10	> 11	Y (1000-5000 fold)	< 0.05		CCN(CC)C(=O)Cn1ccc(Nc2ncc(C(=O)Nc3c(C)ccc(O)c3C)s2)n1 [BAA-173, 2-[[1-[2-(diethylamino)-2-oxo-ethyl]pyrazol-3-yl]amino]-N-(3-hydroxy-2,6-dimethyl-phenyl)thiazole-5-carboxamide]	> 10	>X (3-<10 fold)			0.5 to 3	X (3-<10 fold)	< 0.5		
< 0.5	1 to 11	X (100-<1000 fold)	< 0.05		Cc1ccc(O)c(C)c1NC(=O)c1cnc(Nc2ccn(CC(=O)N3CCN(C(=O)OC(C)(C)C)C(C)(C)C3)n2)s1 [BAA-179, tert-butyl 4-[2-[3-[[5-[(3-hydroxy-2,6-dimethyl-phenyl)carbamoyl]thiazol-2-yl]amino]pyrazol-1-yl]acetyl]-2,2-dimethyl-piperazine-1-carboxylate]	> 10	Z (>30 fold)	Y (10-30 fold)	< 0.5	3 to 10				
0.5 to 3	1 to 11	Y (1000-5000 fold)	< 0.05		CCNC(=O)Cn1cc(C)c(Nc2ncc(C(=O)Nc3c(C)ccc(O)c3C)s2)n1 [BAA-206, 2-[[1-[2-(ethylamino)-2-oxo-ethyl]-4-methyl-pyrazol-3-yl]amino]-N-(3-hydroxy-2,6-dimethyl-phenyl)thiazole-5-carboxamide]	> 10	>Y (10-30 fold)							
< 0.5	1 to 11	X (100-<1000 fold)	< 0.05		Cc1cn(CC(=O)N2CCCC2)nc1Nc1ncc(C(=O)Nc2c(C)ccc(O)c2C)s1 [BAA-208, N-(3-hydroxy-2,6-dimethyl-phenyl)-2-[[4-methyl-1-(2-oxo-2-pyrrolidin-1-yl-ethyl)pyrazol-3-yl]amino]thiazole-5-carboxamide]	> 10	Z (>30 fold)						> 5	Y (>20 fold)
	> 11	Y (1000-5000 fold)	< 0.05		Cc1ccc(O)c(C)c1NC(=O)c1cnc(Nc2ccn(CC(=O)N3CCNC(C)(C)C3)n2)s1 [BAA-229, 2-((1-(2-(3,3-dimethylpiperazin-1-yl)-2-oxoethyl)-1H-pyrazol-3-yl)amino)-N-(3-hydroxy-2,6-dimethylphenyl)thiazole-5-carboxamide]					> 10	X (3-<10 fold)	3 to 10		
	> 11	X (100-<1000 fold)	< 0.05		Cc1ccc(O)c(C)c1NC(=O)c1cnc(Nc2ccn(CC(=O)N3CC4CCC(C3)N4)n2)s1 [BAA-230, 2-((1-(2-(3,8-diazabicyclo[3.2.1]octan-3-yl)-2-oxoethyl)-1H-pyrazol-3-yl)amino)-N-(3-hydroxy-2,6-dimethylphenyl)thiazole-5-carboxamide]					> 10	X (3-<10 fold)	3 to 10		
